Assay results as given in ChEMBL document CHEMBL1201862, “PubChem BioAssay data set” (2004).
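All cell lines were grown in 96-well plates and treated with compound for 48 hours. Abbreviation: GI50, concentration required for 50% inhibition of growth.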 Activity calls are given as the source filed them. Cut-off read from the data, not from the text of the source: active = GI50 up to about 1.1 µM and inactive = higher.

Experiments:
Assay in all cases: NCI-60 cell line screen, 48 h
[1] = tested on: LOX IMVI
[2] = tested on: HT-29
[3] = tested on: NCI-H460
[4] = tested on: HOP-92
[5] = tested on: RXF 393
[6] = tested on: SF-295
[7] = tested on: NCI/ADR-RES
[8] = tested on: OVCAR-4
[9] = tested on: OVCAR-8
[10] = tested on: RPMI-8226
[11] = tested on: NCI-H23
[12] = tested on: SK-MEL-5
[13] = tested on: CCRF-CEM
[14] = tested on: KM12
[15] = tested on: ACHN
[16] = tested on: SR
[17] = tested on: SNB-75
[18] = tested on: T47D
[19] = tested on: SK-MEL-2
[20] = tested on: OVCAR-5

Compound	GI50 [1]	GI50 [2]	GI50 [3]	GI50 [4]	GI50 [5]	GI50 [6]	GI50 [7]	GI50 [8]	GI50 [9]	GI50 [10]	GI50 [11]	GI50 [12]	GI50 [13]	GI50 [14]	GI50 [15]	GI50 [16]	GI50 [17]	GI50 [18]	GI50 [19]	GI50 [20]
CSC1NNC2(C(=O)N1)c1ccccc1-c1ccccc12 (centres undefined)	> 10 µM (inactive)	> 10 µM (inactive)	> 10 µM (inactive)	> 10 µM (inactive)	> 10 µM (inactive)	> 10 µM (inactive)	> 10 µM (inactive)	> 10 µM (inactive)	> 10 µM (inactive)	> 10 µM (inactive)	> 10 µM (inactive)	> 10 µM (inactive)	> 10 µM (inactive)	> 10 µM (inactive)	> 10 µM (inactive)	> 10 µM (inactive)	> 10 µM (inactive)	5.53 µM (inactive)		
COC(=O)c1ccc(NC(=O)c2cc3c(cc2Br)OCO3)o1	> 100 µM (inactive)	> 100 µM (inactive)		26.5 µM (inactive)		> 100 µM (inactive)	59 µM (inactive)	> 100 µM (inactive)	> 100 µM (inactive)	> 100 µM (inactive)	> 100 µM (inactive)	> 100 µM (inactive)	> 100 µM (inactive)	> 100 µM (inactive)	> 100 µM (inactive)	41.4 µM (inactive)		90.6 µM (inactive)	> 100 µM (inactive)	> 100 µM (inactive)
CSC1=C(C#N)C(=S)N=C(N)C1C(=O)Nc1ccc(C)cc1 (centres undefined)	> 100 µM (inactive)	> 100 µM (inactive)	> 100 µM (inactive)		> 100 µM (inactive)		> 100 µM (inactive)	> 100 µM (inactive)	> 100 µM (inactive)	> 100 µM (inactive)	> 100 µM (inactive)	> 100 µM (inactive)	> 100 µM (inactive)	> 100 µM (inactive)		> 100 µM (inactive)	> 100 µM (inactive)	> 100 µM (inactive)	> 100 µM (inactive)	> 100 µM (inactive)
Cc1nc(Cl)c(C)c(Cl)n1	33 µM (inactive)	> 44.7 µM (inactive)	> 100 µM (inactive)		> 100 µM (inactive)	> 100 µM (inactive)	> 53 µM (inactive)	52.7 µM (inactive)	> 100 µM (inactive)	> 100 µM (inactive)	35.3 µM (inactive)	> 59 µM (inactive)	18.7 µM (inactive)	> 59.6 µM (inactive)	> 100 µM (inactive)	0.254 µM (active)	> 100 µM (inactive)	> 100 µM (inactive)	> 100 µM (inactive)	> 100 µM (inactive)
CCOC(=O)CC(N1CC1)N1CC1	> 10 µM (inactive)	> 10 µM (inactive)	> 10 µM (inactive)		> 10 µM (inactive)	> 10 µM (inactive)	> 10 µM (inactive)	> 10 µM (inactive)		> 10 µM (inactive)	> 10 µM (inactive)	> 10 µM (inactive)	> 10 µM (inactive)	> 10 µM (inactive)	> 10 µM (inactive)	> 10 µM (inactive)	> 10 µM (inactive)	> 10 µM (inactive)	> 10 µM (inactive)	> 10 µM (inactive)
O=C1O/C(=C\c2ccc(O)c(Br)c2)C(c2ccc(O)c(Cl)c2)=C1Br	44.6 µM (inactive)	12.9 µM (inactive)	17.1 µM (inactive)	15.4 µM (inactive)	17.2 µM (inactive)	16.1 µM (inactive)	19.9 µM (inactive)	11.5 µM (inactive)	23 µM (inactive)	13.2 µM (inactive)	17.3 µM (inactive)	14.8 µM (inactive)	12.3 µM (inactive)	15 µM (inactive)	15.2 µM (inactive)	5.86 µM (inactive)		19 µM (inactive)	19.1 µM (inactive)	18.6 µM (inactive)
CC(C)c1ccc(/C=C2\CSCC3=C2N=C2SCC(=O)N2C3c2ccc(C(C)C)cc2)cc1 (centres undefined)	> 100 µM (inactive)	> 100 µM (inactive)	> 100 µM (inactive)	> 100 µM (inactive)		> 100 µM (inactive)	> 100 µM (inactive)	> 100 µM (inactive)	> 100 µM (inactive)	80.7 µM (inactive)	> 100 µM (inactive)	> 100 µM (inactive)	68.1 µM (inactive)	> 100 µM (inactive)	> 100 µM (inactive)	77.4 µM (inactive)	> 100 µM (inactive)	57.9 µM (inactive)	> 100 µM (inactive)	> 100 µM (inactive)
C/C(=N\NC(=O)Nc1ccccc1Cl)c1ccc(O)cc1	45.6 µM (inactive)	> 100 µM (inactive)	20.9 µM (inactive)	> 100 µM (inactive)		> 100 µM (inactive)	> 100 µM (inactive)	> 100 µM (inactive)	> 100 µM (inactive)	> 100 µM (inactive)	> 100 µM (inactive)	> 100 µM (inactive)	> 100 µM (inactive)	> 100 µM (inactive)	> 100 µM (inactive)	4.34 µM (inactive)	34.1 µM (inactive)	> 100 µM (inactive)	> 100 µM (inactive)	> 100 µM (inactive)
CN(C)Cc1cc(/N=N/c2cccc(Cl)c2)ccc1O	4.16 µM (inactive)	17 µM (inactive)	12.8 µM (inactive)	6.78 µM (inactive)	1.99 µM (inactive)	14.7 µM (inactive)	5.05 µM (inactive)	9.86 µM (inactive)	14.9 µM (inactive)	18.8 µM (inactive)	19.9 µM (inactive)	3.4 µM (inactive)	15.8 µM (inactive)	7.08 µM (inactive)	3.29 µM (inactive)	20.1 µM (inactive)	16.1 µM (inactive)	6.7 µM (inactive)		14.9 µM (inactive)
O=C1NC(=O)[C@H]2C3C=CC([C@@H]12)[C@@H]1C(=O)NC(=O)[C@H]31	> 100 µM (inactive)		> 100 µM (inactive)	> 100 µM (inactive)	> 100 µM (inactive)	> 100 µM (inactive)	> 100 µM (inactive)		> 100 µM (inactive)	> 100 µM (inactive)	> 100 µM (inactive)	> 100 µM (inactive)	> 100 µM (inactive)		> 100 µM (inactive)	> 100 µM (inactive)		> 100 µM (inactive)	> 100 µM (inactive)	> 100 µM (inactive)
c1ccc([P+](c2ccccc2)(c2ccccc2)c2ccc([P+](c3ccccc3)(c3ccccc3)c3ccccc3)c3ccccc23)cc1	30.5 µM (inactive)	79.4 µM (inactive)	61.4 µM (inactive)		> 100 µM (inactive)	> 100 µM (inactive)	> 100 µM (inactive)		88.1 µM (inactive)	57.1 µM (inactive)	57.4 µM (inactive)	62.1 µM (inactive)	64.4 µM (inactive)	34.4 µM (inactive)	> 100 µM (inactive)	< 0.01 µM (active)	70.1 µM (inactive)	54.8 µM (inactive)	> 100 µM (inactive)	> 100 µM (inactive)
